# “Also recorded” adds a separate entry of the source.
# Tests used:
# [1] = test system: PbT-I liver TRM cells; test: Prime-and-trap vaccination with CpG or α-GalCer as adjuvant; format: in vivo, C57BL/6 mice; conditions: adjuvant with αClec9a-NVY plus rAAV-NVY; 50,000 PbT-I cells; liver day 35
# Excerpt: The following day all mice were infected with 2.5×10^9 copies of rAAV-NVY. Spleens (A) and livers (B) were harvested from all mice 35 days later and the number of PbT-I TRM (CD69^+CD62L^low), TEM (CD69−CD62L^low) and TCM (CD69−CD62L^high) cells were enumerated by flow cytometry.
# As illustrated above, prime-and-trap vaccination using CpG as an adjuvant was very effective at inducing liver TRM cells. To test whether CpG adjuvant might be substituted by α-GalCer, we compared prime-and-trap using CpG versus α-GalCer, (FIG. 3). C57BL/6 mice were injected with 50,000 naïve PbT-I T cells to track responses and were then vaccinated with the anti-Clec9A-NVY fusion protein together with either CpG or α-GalCer as adjuvant plus rAAV-NVY (SEQ ID NO: 15).
# [2] = test system: P. berghei sporozoites; test: P. berghei sporozoite challenge of vaccinated mice given PbT-I cells; conditions: single vaccination; 200 P. berghei ANKA sporozoites at day 42
# Method: The remaining mice were challenged with 200 P. berghei sporozoites at day 42 and parasitemia was measured by flow cytometry from day 6-13. […] Percentage of parasites present in red blood cells at day 7 post malaria challenge. […] Number of mice that succumbed or were protected after malaria challenge.
# The remaining mice in each group were challenged with 200 P. berghei sporozoites at day 73 and parasitemia was measured at day 79, 80, 81. Mice with two consecutive days of visible parasites in the blood were culled. Mice surviving challenge with low dose sporozoites were rechallenged with 3000 sporozoites. Parasitemia was measured at days 5, 6, 7, 8 and 12 post-high-dose-challenge.
# As described in Example 11, 50,000 PbT-I.GFP cells were transferred into recipient C57BL/6 mice. […] Organs were harvested from mice from each group at days 21-35 post vaccination and assessed for the generation of memory T cells by flow cytometry as outlined in FIG. 5. The remaining mice per group were challenged with 200 P. berghei sporozoites at day 42 and parasitemia was measured by flow cytometry at days 6, 7, 8 and 13. […]
# As described in Example 12, 50,000 PbT-I.GFP cells were transferred into recipient C57BL/6 mice. […] Organs were harvested from mice from each group at days 21 post vaccination and assessed for the generation of memory T cells by flow cytometry as outlined in FIG. 5. […]
# [3] = test system: NKT cells; test: NKT cell expansion and activation by NVY conjugates; format: in vivo, C57BL/6 mice; conditions: 0.135 nmol, day 3
# Excerpt: Lymphocytes were stained with monoclonal antibodies for: CD49a (Ha31/8), NK1.1 (PK136) from BD (North Ryde, NSW, Australia), CD8a (53-6.7), KLRG1 (2F1), Ly5.1 (A20), Ly5.1 (104), CD8a (53-6.7), CD44 (IM7), Ly6C (HK1.4), TCRβ (H57-597), CXCR6 (SA051D1), CXCR3 (CXCR3-173), CX3CR1 (SA011F11), from Biolegend (Australian Biosearch, Karrinyup, WA. Australia), and CD62L (MEL-14), CD101 (Moushi101) and CD69 (H1.2F3), from eBioscience (Jomar Life Research, Scoresby, VIC, Australia). Dead cells were excluded by propidium iodide staining or far red live/dead fixable dye (ThermoFisher). In some experiments cells were stained with an α-GalCer (PBS-44—a gift from Prof. Paul Savage, Brigham-Young University, UT, USA)-loaded CD1d tetramer produced in-house at 4° C. for 30 min, washed, and further antibody staining was conducted for 10 min at 4° C. Antibodies used were for: CD3 (17A2), CD45R/B220 (RA3-6B2), NK1.1 (PK136), CD69 (H1.2F3), all from BioLegend (CA, USA). The viability dye used was DAPI (Invitrogen, NZ). Single-color positive control samples were used to adjust compensation and cells were analyzed by flow cytometry on a LSR Fortessa (BD Biosciences), or LSRII SORP using Flowjo software (Tree Star Inc.).
# [4] = test system: epitope-specific CD8+ T cell response; test: PfRPL677-85-specific response in spleen by ELISpot after peptide immunization of HHD mice; format: in vivo; conditions: peptide with anti-CD40 mAb and poly IC, spleen day 7
# Method: HHD mice, which express human HLA-A*02:01 and lack expression of murine MHC class molecules, were immunized with […] anti-CD40 mAb+[…] poly IC+[…] of PfRPL677-85 peptide ([…]) (SEQ ID NO: 18), or no peptide. 7 days later, PfRPL677-85-specific responses were measured in the spleen by ELISpot, by restimulating with the same peptide. Data were analysed using two-way ANOVA; Number of experiments=2, number of mice=3-4.
# Having characterized PBANKA 1351900 (60S ribosomal protein L6-2, putative) RPL6 as a promising antigen in P. berghei, we sought to identify potential human-relevant antigens in its P. falciparum ortholog (PF3D7 1338200, also known as PF13 0213). To this extent, we used the Immune Epitope Database (IEDB: https://www.iedb.org/) epitope prediction resource (Vita, R. et al. 2019) to search for peptides within P. falciparum RPL6 that were capable of binding HLA-A*02:01; a common allele.
Compound,liver TRM cell numbers in prime-and-trap setting [1],protection after malaria challenge [2],expansion of NKT cells (numbers in liver and spleen) [3],"activation of NKT cells (CD69, NK1.1) ([3]; liver and spleen)",epitope-specific CD8+ T cell response [4]
"CCCCCCCCCCCCCCCCCCCCCCCCCC(=O)N[C@@H](CO[C@H]1O[C@H](CO)[C@H](O)[C@H](O)[C@H]1O)[C@H](O)[C@H](O)CCCCCCCCCCCCCC [α-GalCer, N-((2S,3S,4R)-3,4-Dihydroxy-1-(((2S,3R,4S,5R,6R)-3,4,5-trihydroxy-6-(hydroxymethyl)tetrahydro-2H-pyran-2-yl)oxy)octadecan-2-yl)hexacosanamide]",gave a much poorer liver TRM cell response; also recorded: does not generate large numbers of liver TRM cells; also recorded: did not produce high numbers of liver TRM cells,no mice were protected,more efficient at expanding NKT cells than V.S.NVYLP,more potently activated NKT cells when compared to V.S.NVYLP,
ILNSGLLAV,,,,,triggered an epitope-specific CD8^+ T cell response

# From US20220233668A1, “GLYCOPEPTIDE VACCINE” (VICTORIA LINK LTD., priority 2019, published 2022)
